Source: ChEMBL document CHEMBL1156187, “Discovery of a selective small-molecule melanocortin-4 receptor agonist with efficacy in a pilot study of sexual dysfunction in humans” (J Med Chem, 2010)

Tests used:
[1] = Volume of distribution at steady state in rat at 1 mg/kg, iv; type: ADME, organism-based; parameters: dose 1 mg/kg, route intravenous; conditions: in vivo, read-out: Vdss
[2] = Half life in rat at 1 mg/kg, iv; type: ADME, organism-based; parameters: dose 1 mg/kg, route intravenous; conditions: in vivo
[3] = Oral bioavailability in rat at 0.1 mg/kg; type: ADME, organism-based; conditions: in vivo
[4] = Oral bioavailability in dog at 0.1 mg/kg; type: ADME, organism-based, Canis lupus familiaris; conditions: in vivo
[5] = Clearance in dog plasma at 0.05 mg/kg, iv; type: ADME, organism-based, Canis lupus familiaris; parameters: dose 0.05 mg/kg, route intravenous
[6] = Volume of distribution at steady state in dog plasma at 0.05 mg/kg, iv; type: ADME, organism-based, Canis lupus familiaris; parameters: dose 0.05 mg/kg, route intravenous; conditions: read-out: Vdss
[7] = Half life in dog at 0.05 mg/kg, iv; type: ADME, organism-based, Canis lupus familiaris; parameters: dose 0.05 mg/kg, route intravenous; conditions: in vivo
[8] = Binding affinity to sodium channel
[9] = Association constant, pKa of the compound; type: physicochemical
Melanocortin receptor 4 [10] = target: T1, Melanocortin receptor 4 (Homo sapiens, UniProt P32245); assay: Agonist activity at human recombinant MC4 receptor expressed in CHO cells by cAMP responsive beta lactamase reporter gene assay; type: functional, cell-based
Melanocortin receptor 3 [11] = target: T2, Melanocortin receptor 3 (Homo sapiens, UniProt P41968); assay: Agonist activity at human recombinant MC3 receptor expressed in CHO cells assessed as cAMP accumulation by enzyme fragment complementation assay relative to […]; type: functional, cell-based
Melanocortin receptor 3 [12] = target: T2, Melanocortin receptor 3; assay: Agonist activity at human recombinant MC3 receptor expressed in CHO cells assessed as cAMP accumulation by enzyme fragment complementation assay; type: functional, cell-based
[13] = target: T3, Melanocyte-stimulating hormone receptor (Homo sapiens, UniProt Q01726); assay: Agonist activity at human recombinant MC1 receptor expressed in HEK293 cells assessed as cAMP accumulation by enzyme fragment complementation assay; type: functional, cell-based
Target sequence in this assay (Q01726 whole entry, the tested form may be a part): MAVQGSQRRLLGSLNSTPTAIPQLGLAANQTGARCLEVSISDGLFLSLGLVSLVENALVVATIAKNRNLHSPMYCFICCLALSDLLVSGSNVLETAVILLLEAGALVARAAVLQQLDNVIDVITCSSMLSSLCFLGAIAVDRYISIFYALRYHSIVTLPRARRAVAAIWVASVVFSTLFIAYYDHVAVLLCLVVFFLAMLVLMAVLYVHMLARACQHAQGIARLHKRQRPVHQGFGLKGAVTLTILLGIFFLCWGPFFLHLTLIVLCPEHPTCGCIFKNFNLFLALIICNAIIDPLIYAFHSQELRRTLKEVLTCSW

[14] = target: T3, Melanocyte-stimulating hormone receptor; assay: Agonist activity at human recombinant MC1 receptor expressed in HEK293 cells assessed as cAMP accumulation by enzyme fragment complementation assay relative to alpha melanocyte-stimulating hormone; type: functional, cell-based
Target sequence in this assay (Q01726 whole entry, looked up, the tested form may be a part): as the sequence (Q01726 whole entry, the tested form may be a part) above

Melanocortin receptor 5 [15] = target: T4, Melanocortin receptor 5 (Homo sapiens, UniProt P33032); assay: Agonist activity at human recombinant MC5 receptor expressed in HEK293 cells assessed as cAMP accumulation by beta lactamase reporter gene assay; type: functional, cell-based
Melanocortin receptor 5 [16] = target: T4, Melanocortin receptor 5; assay: Agonist activity at human recombinant MC5 receptor expressed in HEK293 cells assessed as cAMP accumulation by beta lactamase reporter gene assay relative to alpha melanocyte-stimulating hormone; type: functional, cell-based
[17] = Lipophilicity, log D at pH 7.4; type: physicochemical; conditions: buffer
[18] = Intrinsic clearance in human liver microsome measured per mg of protein; type: ADME; conditions: liver microsomes
Liver microsomes = assay: Intrinsic clearance in rat liver microsome measured per mg of protein; type: ADME
[19] = Intrinsic clearance in dog liver microsome measured per mg of protein; type: ADME, Canis lupus familiaris; conditions: microsomes
[20] = Fraction unbound in dog plasma; type: ADME, cell-free, Canis lupus familiaris
[21] = Fraction unbound in rat plasma; type: ADME, cell-free
[22] = Apparent Permeability from basolateral to apical side of MDCK2 cells over expressing MDR1; type: ADME, cell-based, Canis lupus familiaris; conditions: dog, MDCK-MDR1; read-out: permeability
[23] = Apparent Permeability from apical to basolateral side of MDCK2 cells over expressing MDR1; type: ADME, cell-based, Canis lupus familiaris; conditions: dog, MDCK-MDR1; read-out: permeability
[24] = Clearance in rat at 1 mg/kg, iv; type: ADME, organism-based; parameters: dose 1 mg/kg, route intravenous; conditions: in vivo
Melanocortin receptor 4 [25] = target: T1, Melanocortin receptor 4; assay: Displacement of [125I]-MT-II from human recombinant MC4 receptor expressed in CHO cells by scintillation counting
[26] = target: Voltage-gated inwardly rectifying potassium channel KCNH2 (Homo sapiens, UniProt Q12809); assay: Displacement of [3H]dofetilide from human ERG expressed in CHO cells by patch clamp method
Sequence of Voltage-gated inwardly rectifying potassium channel KCNH2 (Q12809 whole entry): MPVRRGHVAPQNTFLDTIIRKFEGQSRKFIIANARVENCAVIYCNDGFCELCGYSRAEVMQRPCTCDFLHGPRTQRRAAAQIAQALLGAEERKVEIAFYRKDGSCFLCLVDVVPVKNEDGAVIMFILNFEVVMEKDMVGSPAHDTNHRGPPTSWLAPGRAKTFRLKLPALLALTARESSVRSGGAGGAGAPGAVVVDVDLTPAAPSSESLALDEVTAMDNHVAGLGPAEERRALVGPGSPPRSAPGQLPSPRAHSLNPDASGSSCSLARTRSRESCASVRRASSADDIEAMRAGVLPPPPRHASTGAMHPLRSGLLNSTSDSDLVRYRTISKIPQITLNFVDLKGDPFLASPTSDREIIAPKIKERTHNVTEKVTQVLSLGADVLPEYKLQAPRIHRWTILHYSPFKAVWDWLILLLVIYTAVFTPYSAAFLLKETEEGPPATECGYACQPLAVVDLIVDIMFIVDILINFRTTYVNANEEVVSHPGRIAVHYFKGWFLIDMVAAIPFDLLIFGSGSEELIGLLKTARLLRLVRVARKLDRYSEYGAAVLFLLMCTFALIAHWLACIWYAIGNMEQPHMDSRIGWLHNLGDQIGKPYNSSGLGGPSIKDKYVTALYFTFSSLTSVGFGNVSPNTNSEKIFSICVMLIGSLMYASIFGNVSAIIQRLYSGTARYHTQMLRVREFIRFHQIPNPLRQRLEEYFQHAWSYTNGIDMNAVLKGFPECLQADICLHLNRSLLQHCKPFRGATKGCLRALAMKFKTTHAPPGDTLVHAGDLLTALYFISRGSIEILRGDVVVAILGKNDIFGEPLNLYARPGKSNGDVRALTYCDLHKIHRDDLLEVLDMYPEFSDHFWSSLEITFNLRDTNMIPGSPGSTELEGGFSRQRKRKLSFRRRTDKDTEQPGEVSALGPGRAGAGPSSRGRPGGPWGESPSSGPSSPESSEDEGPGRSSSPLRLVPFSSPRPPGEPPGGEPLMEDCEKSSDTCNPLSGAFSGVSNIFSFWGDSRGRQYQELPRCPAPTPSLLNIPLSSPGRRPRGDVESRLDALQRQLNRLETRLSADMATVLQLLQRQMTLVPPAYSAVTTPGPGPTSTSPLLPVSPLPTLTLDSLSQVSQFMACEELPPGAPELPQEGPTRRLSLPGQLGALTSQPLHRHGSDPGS

T1 sequence (P32245 whole entry, the tested form may be a part): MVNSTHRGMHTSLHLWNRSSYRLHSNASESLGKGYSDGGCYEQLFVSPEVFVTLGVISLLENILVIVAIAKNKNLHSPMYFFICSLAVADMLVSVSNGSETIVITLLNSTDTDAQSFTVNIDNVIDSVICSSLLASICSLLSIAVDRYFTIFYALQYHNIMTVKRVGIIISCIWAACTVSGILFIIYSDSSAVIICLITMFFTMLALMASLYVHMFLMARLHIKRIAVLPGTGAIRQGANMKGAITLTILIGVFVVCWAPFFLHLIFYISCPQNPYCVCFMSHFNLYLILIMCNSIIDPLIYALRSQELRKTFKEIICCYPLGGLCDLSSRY
T2 sequence (P41968 whole entry, the tested form may be a part): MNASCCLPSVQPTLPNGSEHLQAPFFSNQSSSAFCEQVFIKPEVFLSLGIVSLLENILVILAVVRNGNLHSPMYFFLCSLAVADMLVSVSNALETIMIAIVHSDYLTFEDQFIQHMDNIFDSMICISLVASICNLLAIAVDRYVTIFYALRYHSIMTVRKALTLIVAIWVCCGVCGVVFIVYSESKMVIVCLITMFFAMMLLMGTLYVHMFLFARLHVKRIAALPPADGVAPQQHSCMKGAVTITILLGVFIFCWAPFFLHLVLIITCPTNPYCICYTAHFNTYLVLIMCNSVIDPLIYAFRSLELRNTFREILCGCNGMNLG
T4 sequence (P33032 whole entry): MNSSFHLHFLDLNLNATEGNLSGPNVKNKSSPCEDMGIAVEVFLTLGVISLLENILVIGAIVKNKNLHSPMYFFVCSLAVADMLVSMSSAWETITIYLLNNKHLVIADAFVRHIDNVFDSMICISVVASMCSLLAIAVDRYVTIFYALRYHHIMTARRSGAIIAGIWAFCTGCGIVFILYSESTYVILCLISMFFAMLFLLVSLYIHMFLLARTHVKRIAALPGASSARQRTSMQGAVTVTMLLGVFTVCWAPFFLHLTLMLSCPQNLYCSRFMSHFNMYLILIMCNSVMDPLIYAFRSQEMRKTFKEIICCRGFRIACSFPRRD

Row | SMILES | EC50 (Melanocortin receptor 4 [10]) [nM] | Emax (Melanocortin receptor 3 [11]) [%] | EC50 (Melanocortin receptor 3 [12]) [nM] | EC50 [13] [nM] | EC50 (Melanocortin receptor 5 [15]) [nM] | logD [17] | microsomal CLint [18] [µL/min/mg] | Ki (Melanocortin receptor 4 [25]) [nM] | Ki [26] [nM] | other results
1 | C[C@@H]1CN(C(=O)[C@@H]2CN(C(C)(C)C)C[C@H]2c2ccc(F)cc2F)C[C@H](C)[C@@]1(O)c1ccc(F)cc1.Cl | 18 | 79 | 3050 | 1120 | 3600 | 3.1 | 28 | 36 |  | Vd [1]: 11 L/kg; half-life [2]: 3.9 h; bioavailability [3]: 74%; bioavailability [4]: 28%; clearance [5]: 12 mL/min/kg; Vd [6]: 11 L/kg; half-life [7]: 10.4 h; Ki [8]: 520 nM; pKa [9]: 8.74; Emax [14]: 99%; Emax (Melanocortin receptor 5 [16]): 116%; clearance (Liver microsomes): 47 µL/min/mg; clearance [19]: 8 µL/min/mg; fraction unbound [20]: 0.09; fraction unbound [21]: 0.04; Papp B→A [22]: 22 ×10⁻⁶ cm/s; Papp A→B [23]: 26 ×10⁻⁶ cm/s; clearance [24]: 34 mL/min/kg
2 | C[C@@H]1CN(C(=O)[C@H]2CN(c3ccncn3)C[C@@H]2c2ccc(F)cc2F)C[C@H](C)[C@@]1(O)c1ccccc1 | 4 | 75 | 600 | > 9000 | > 14000 |  |  | 64 | > 10000 | 
3 | C[C@@H]1CN(C(=O)[C@H]2CN(C3CCOCC3)C[C@@H]2c2ccc(F)cc2F)C[C@H](C)[C@@]1(O)c1ccccc1 | 18 |  | > 14500 | > 11900 | > 20000 | 3.1 | 151 | 36 | > 5270 | 
